The values below come from ChEMBL document CHEMBL4354877, “MymA Bioactivated Thioalkylbenzoxazole Prodrug Family Active against Mycobacterium tuberculosis” (J Med Chem, 2020).

Structures are written as SMILES. Values after ≈ are worked out from the molar mass of the structure shown. Active and inactive are the calls of the source. The calls are words filed in the database; no cut-off is given here.

The nature of data set [1]: Kinetic aqueous solubility in pH 7.4 PBS incubated for 1 hr by CLND assay. In kind it is physicochemical. The note with it: read-out: Kinetic_solubility.
Data set [2] is described as follows: Solubility in pH 6.5 FaSSIF incubated for 4 hrs by HPLC-UV based assay. In kind it is physicochemical.
The subject of the next data set is HepG2. Put plainly: Cytotoxicity in human HepG2 cells assessed as reduction in cell viability incubated for 48 hrs by Cell-titer Glo kit based assay. The note with it: HepG2, 48 h.
A short description of data set [3]: Intrinsic clearance in mouse liver microsomes at 0.5 uM incubated for 45 mins in presence of NADPH by LC-MS/MS analysis. In kind it is ADME, Microsome. The settings on record: 0.75 h.
Data set [4] deals with Mycobacterium tuberculosis. Nature of the data set: Antimycobacterial activity against Mycobacterium tuberculosis H37Rv intracellular forms infected in human THP1 cells assessed as inhibition of microbial growth incubated for 5 days by luciferase reporter gene assay. Format: functional. The note with it: THP-1, 120 h.
The nature of data set [5]: Intrinsic clearance in human liver microsomes at 0.5 uM incubated for 45 mins in presence of NADPH by LC-MS/MS analysis. The settings on record: 0.75 h. Format: ADME, Microsome.
Data set [6] can be described thus: Permeability at pH 7.4 incubated for 4 hrs by PAMPA method. Format: ADME. The note with it: read-out: permeability. (The PAMPA barrier holds no transporters, so it reflects passive diffusion.)
Data set [7] has as its system Mycobacterium tuberculosis. Nature of the data set: Antimycobacterial activity against Mycobacterium tuberculosis extracellular forms assessed as inhibition of microbial growth. Format: functional.
Data set [8] is described as follows: Stability in human liver microsomes assessed as GSH-conjugates formation at 25 uM incubated for 60 mins in presence of NADPH and GSH by LC-MS/MS analysis. In kind it is ADME, Microsome. The settings on record: 1 h. (Microsomes from liver hold many membrane-bound enzymes, among them those of drug oxidation.)
For the next data set, the system named is Hepatocyte. Put plainly: Cytotoxicity in human primary hepatocytes assessed as reduction in cell viability up to 100 uM incubated for 72 hrs by MTT assay. Format: cell-based.
The target in data set [9] is T1, Cytochrome P450 3A4 (Homo sapiens, UniProt P08684). Nature of the data set: Inhibition of CYP3A4 (unknown origin) in presence of cofactor. In kind it is ADME.
T1 sequence (P08684 whole entry): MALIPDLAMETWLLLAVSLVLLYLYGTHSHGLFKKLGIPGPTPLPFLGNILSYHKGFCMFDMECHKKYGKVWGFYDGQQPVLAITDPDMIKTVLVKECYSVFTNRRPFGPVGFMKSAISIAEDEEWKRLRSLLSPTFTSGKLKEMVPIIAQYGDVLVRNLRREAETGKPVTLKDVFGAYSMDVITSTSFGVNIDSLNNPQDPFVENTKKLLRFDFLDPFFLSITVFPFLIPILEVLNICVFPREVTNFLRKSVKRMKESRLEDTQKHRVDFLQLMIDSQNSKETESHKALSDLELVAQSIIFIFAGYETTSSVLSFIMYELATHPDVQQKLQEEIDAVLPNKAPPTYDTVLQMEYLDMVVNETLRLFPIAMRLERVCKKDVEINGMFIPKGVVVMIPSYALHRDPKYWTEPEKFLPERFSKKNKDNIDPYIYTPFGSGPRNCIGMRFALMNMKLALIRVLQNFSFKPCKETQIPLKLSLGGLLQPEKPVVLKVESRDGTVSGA
Data set [10] concerns Mycobacterium tuberculosis. Nature of the data set: Antimycobacterial activity against Mycobacterium tuberculosis H37Rv infected in C57BL/6 mouse model of acute infection assessed as reduction in mycobacterial load in lung at 200 mg/kg dosed once per day for 8 days co-dosed with 50 mg/kg/day CYP inhibitor ABT. In kind it is functional, organism-based.
A further data set deals with THP-1. Put plainly: Cytotoxicity in human THP1 cells assessed as reduction in cell viability incubated for 5 days hrs by ATPLite assay. Format: cell-based. The settings on record: THP-1, 120 h.
Data set [11] concerns the target T1, Cytochrome P450 3A4. Nature of the data set: Inhibition of CYP3A4 (unknown origin) in absence of cofactor. Format: ADME.
In data set [12] the test system is Mycobacterium tuberculosis. Put plainly: Antimycobacterial activity against Mycobacterium tuberculosis H37Rv assessed as inhibition of microbial growth incubated for 6 days by alamar blue resazurin assay. In kind it is functional. The settings on record: 144 h.

Consider `CN(C(=O)CCSc1nc2cc(Cl)ccc2o1)C1CCS(=O)(=O)CC1`, for which the solubility kinetic at 1 h in data set [1] is above 328 µM. In data set [2], this compound gave a solubility at 4 h of 178 µg/mL (≈ 442 µM). Besides, the IC50 in the data set on HepG2 is above 100 µM. Moreover, the CLH in data set [3] was 0.7 mL/min/g; in data set [5], below 0.4 mL/min/g. In data set [4], the 90% effect concentration (IC90) is 7.7 µM. Besides, the Papp at 4 h in [6] came out at 44 ×10⁻⁶ cm/s. In addition, the MIC in data set [7] is 40 µM.

Regarding `O=C(CCSc1nc2cc(Cl)ccc2o1)N1CCCC1`, the solubility kinetic at 1 h in data set [1] is above 362 µM. In addition, the Stability entry in data set [8] is given as “Stable”. Besides, in the data set on Hepatocyte, the Activity entry is listed as “Non-Toxic”. Moreover, in [2], the concentration in solution (solubility at 4 h) was 8 µg/mL (≈ 25.7 µM). Besides, the half-maximal inhibitory concentration (IC50) on Cytochrome P450 3A4 [9] was above 39.8 µM; in the data set with HepG2, above 100 µM; in the data set on THP-1 it was above 50 µM; against Cytochrome P450 3A4 [11], above 39.8 µM. Further, the values for the CLH in data set [3] and in data set [5] were 131 to 132 mL/min/g and 5.8 mL/min/g, respectively. Moreover, the IC90 in data set [4] stood at 2.8 µM. In [10], the result was inactive. Further, the Papp at 4 h in [6] is 78 ×10⁻⁶ cm/s. Further, the minimum inhibitory concentration (MIC) in data set [7] and in data set [12] was 10 µM throughout.

Turning to `O=C(CCSc1nc2cc(F)c(F)cc2o1)N1CCCC1`, the CLH is 45.9 mL/min/g in data set [3] and 6.5 mL/min/g in [5]. In addition, in [4], the concentration for an effect of 90% (IC90) was determined as 1.3 µM.

In the case of `O=C(CCSc1nc2cc(Cl)ccc2[nH]1)N1CCCC1`, the CLH in [3] was determined as 56.8 mL/min/g; in data set [5] it was 9.2 mL/min/g. Further, the IC90 in [4] is above 50 µM.

In general, solubility refers to the concentration that dissolves in the medium under given conditions. Low values mean a poorly soluble substance, high ones a readily soluble substance. Broadly, the IC50 is the concentration that inhibits the measured activity by half. One may read the IC90 as the concentration needed for an effect of 90%. The term MIC denotes the lowest concentration found to suppress growth.
